From ChEMBL document CHEMBL5518215, “Unlocking Antibacterial Potential: Key-Site-Based Regulation of Antibacterial Spectrum of Peptides” (J Med Chem, 2024)
Residues, ends and D or L forms follow the SMILES beside them. *: point of attachment. FITC = O=C1OC2(c3ccc(O)cc3Oc3cc(O)ccc32)c2ccc(NC(=S)*)cc21

Tests used:
[1] = tested on: Acinetobacter baumannii; test: Antimicrobial activity against Acinetobacter baumannii 1.6769 assessed as absence bacterial growth measured after 18 to 24 hrs incubation by NCCLS method; assay type: functional; conditions: time 18-24 hrs
[2] = Hemolytic activity in human RBC at effective concentration at 128 uM measured after 1 hr by microplate reader relative to control; assay type: toxicity, cell-based, Erythrocyte; conditions: human red blood cells (erythrocytes), read-out: Activity
[3] = tested on: Escherichia coli; test: Antimicrobial activity against Escherichia coli 25922 assessed as absence bacterial growth measured after 18 to 24 hrs incubation in presence of 25% serum by NCCLS method; assay type: functional; conditions: time 18-24 hrs
[4] = tested on: Listeria monocytogenes; test: Antimicrobial activity against Listeria monocytogenes 1.10753 assessed as absence bacterial growth measured after 18 to 24 hrs incubation by NCCLS method; assay type: functional; conditions: time 18-24 hrs
[5] = tested on: Escherichia coli; test: Antimicrobial activity against Escherichia coli 25922 assessed as absence bacterial growth measured after 18 to 24 hrs incubation in presence of 12.5% serum by NCCLS method; assay type: functional; conditions: time 18-24 hrs
[6] = tested on: Escherichia coli; test: Antimicrobial activity against Escherichia coli 25922 assessed as absence bacterial growth measured after 18 to 24 hrs incubation in presence of FeCl3 by NCCLS method; assay type: functional; conditions: time 18-24 hrs
[7] = Cytotoxicity against mouse RAW264.7 cells assessed as cell survival rate at 32 to 64 uM measured after 8 hrs by MTT assay relative to control; assay type: toxicity, cell-based; conditions: dose 32-64 µM, read-out: Activity
[8] = tested on: Salmonella typhimurium; test: Antimicrobial activity against Salmonella typhimurium 14028 assessed as absence bacterial growth measured after 18 to 24 hrs incubation by NCCLS method; assay type: functional, Salmonella enterica subsp. enterica serovar Typhimurium; conditions: Salmonella enterica, time 18-24 hrs
[9] = Cytotoxicity against mouse RAW264.7 cells assessed as cell survival rate measured after 8 hrs by MTT assay; assay type: toxicity, cell-based
[10] = tested on: Bacillus cereus; test: Antimicrobial activity against Bacillus cereus 1.932 assessed as absence bacterial growth measured after 18 to 24 hrs incubation by NCCLS method; assay type: functional; conditions: time 18-24 hrs
[11] = Cytotoxicity against human HEK-293T cells assessed as cell survival rate measured after 8 hrs by MTT assay; assay type: toxicity, cell-based
[12] = tested on: Escherichia coli; test: Antimicrobial activity against Escherichia coli K88 assessed as bacterial killing measured after 16 hrs incubation; assay type: functional
[13] = Antimicrobial activity against Salmonella pullorum C7913 assessed as bacterial killing measured after 16 hrs incubation; assay type: functional, Salmonella enterica subsp. enterica serovar Pullorum; conditions: Salmonella enterica
[14] = tested on: Staphylococcus aureus; test: Antimicrobial activity against Staphylococcus aureus 29213 assessed as absence bacterial growth measured after 18 to 24 hrs incubation by NCCLS m; assay type: functional; conditions: time 18-24 hrs
[15] = tested on: Escherichia coli; test: Antimicrobial activity against Escherichia coli 25922 assessed as absence bacterial growth measured after 18 to 24 hrs incubation in presence of NH4Cl by NCCLS method; assay type: functional; conditions: time 18-24 hrs
[16] = tested on: Staphylococcus aureus; test: Antimicrobial activity against Staphylococcus aureus 29213 assessed as absence bacterial growth measured after 18 to 24 hrs incubation by NCCLS method; assay type: functional; conditions: time 18-24 hrs
[17] = tested on: Staphylococcus aureus; test: Antimicrobial activity against Staphylococcus aureus 29213 assessed as bacterial killing measured after 16 hrs incubation; assay type: functional
[18] = tested on: Escherichia coli; test: Antimicrobial activity against Escherichia coli 25922 assessed as bacterial killing measured after 16 hrs incubation; assay type: functional
[19] = tested on: Pseudomonas aeruginosa; test: Antimicrobial activity against Pseudomonas aeruginosa 27853 assessed as absence bacterial growth measured after 18 to 24 hrs incubation by NCCLS method; assay type: functional; conditions: time 18-24 hrs
[20] = tested on: Salmonella typhimurium; test: Antimicrobial activity against Salmonella typhimurium 14028 assessed as bacterial killing measured after 16 hrs incubation; assay type: functional, Salmonella enterica subsp. enterica serovar Typhimurium; conditions: Salmonella enterica
[21] = tested on: Pseudomonas aeruginosa; test: Antimicrobial activity against Pseudomonas aeruginosa 27853 assessed as bacterial killing measured after 16 hrs incubation; assay type: functional
[22] = tested on: Escherichia coli; test: Antimicrobial activity against Escherichia coli 25922 assessed as absence bacterial growth measured after 18 to 24 hrs incubation in presence of KCl by NCCLS method; assay type: functional; conditions: time 18-24 hrs
[23] = tested on: Staphylococcus epidermidis; test: Antimicrobial activity against Staphylococcus epidermidis 12228 assessed as bacterial killing measured after 16 hrs incubation; assay type: functional
[24] = tested on: Escherichia coli; test: Antimicrobial activity against Escherichia coli 25922 assessed as absence bacterial growth measured after 18 to 24 hrs incubation in presence of ZnCl2 by NCCLS method; assay type: functional; conditions: time 18-24 hrs
[25] = Cytotoxicity against porcine IPEC-J2 cells assessed as cell survival rate measured after 8 hrs by MTT assay; assay type: toxicity, cell-based, Sus scrofa; conditions: pig
[26] = tested on: Salmonella typhimurium; test: Antimicrobial activity against Salmonella typhimurium C7731 assessed as bacterial killing measured after 16 hrs incubation; assay type: functional, Salmonella enterica subsp. enterica serovar Typhimurium; conditions: Salmonella enterica
[27] = tested on: Staphylococcus aureus; test: Antimicrobial activity against Methicillin-resistant Staphylococcus aureus 43300 assessed as bacterial killing measured after 16 hrs incubation; assay type: functional
[28] = Cytotoxicity against porcine IPEC-J2 cells assessed as cell survival rate at 64 uM measured after 8 hrs by MTT assay relative to control; assay type: toxicity, cell-based, Sus scrofa; conditions: pig, read-out: Activity
[29] = tested on: Enterococcus faecalis; test: Antimicrobial activity against Enterococcus faecalis 29212 assessed as bacterial killing measured after 16 hrs incubation; assay type: functional
[30] = tested on: Salmonella typhimurium; test: Antimicrobial activity against Salmonella typhimurium C7731 assessed as absence bacterial growth measured after 18 to 24 hrs incubation by NCCLS method; assay type: functional, Salmonella enterica subsp. enterica serovar Typhimurium; conditions: Salmonella enterica, time 18-24 hrs
[31] = tested on: Escherichia coli; test: Antimicrobial activity against Escherichia coli 25922 assessed as absence bacterial growth measured after 18 to 24 hrs incubation by NCCLS method; assay type: functional; conditions: time 18-24 hrs
[32] = tested on: Bacillus cereus; test: Antimicrobial activity against Bacillus cereus 1.932 assessed as bacterial killing measured after 16 hrs incubation; assay type: functional
[33] = tested on: Listeria monocytogenes; test: Antimicrobial activity against Listeria monocytogenes 1.10753 assessed as bacterial killing measured after 16 hrs incubation; assay type: functional
[34] = tested on: Escherichia coli; test: Antimicrobial activity against Escherichia coli 25922 assessed as absence bacterial growth measured after 18 to 24 hrs incubation in presence of MgCl2 by NCCLS method; assay type: functional; conditions: time 18-24 hrs
[35] = tested on: Acinetobacter baumannii; test: Antimicrobial activity against Acinetobacter baumannii 1.6769 assessed as bacterial killing measured after 16 hrs incubation; assay type: functional
[36] = tested on: Enterococcus faecalis; test: Antimicrobial activity against Enterococcus faecalis 29212 assessed as absence bacterial growth measured after 18 to 24 hrs incubation by NCCLS method; assay type: functional; conditions: time 18-24 hrs
[37] = tested on: Staphylococcus aureus; test: Antimicrobial activity against Staphylococcus aureus 25923 assessed as bacterial killing measured after 16 hrs incubation; assay type: functional
[38] = Cytotoxicity against human HEK-293T cells assessed as cell survival rate at 64 uM measured after 8 hrs by MTT assay relative to control; assay type: toxicity, cell-based; conditions: read-out: Activity
[39] = tested on: Escherichia coli; test: Antimicrobial activity against Escherichia coli K88 assessed as absence bacterial growth measured after 18 to 24 hrs incubation by NCCLS method; assay type: functional; conditions: time 18-24 hrs
[40] = tested on: Erythrocyte; test: Hemolytic activity in human RBC at effective concentration measured after 1 hr by microplate reader analysis; assay type: toxicity, cell-based
[41] = Antimicrobial activity against Salmonella pullorum C7913 assessed as absence bacterial growth measured after 18 to 24 hrs incubation by NCCLS method; assay type: functional, Salmonella enterica subsp. enterica serovar Pullorum; conditions: Salmonella enterica, time 18-24 hrs
[42] = tested on: Staphylococcus aureus; test: Antimicrobial activity against Methicillin-resistant Staphylococcus aureus 43300 assessed as absence bacterial growth measured after 18 to 24 hrs incubation by NCCLS method; assay type: functional; conditions: time 18-24 hrs
[43] = tested on: Staphylococcus epidermidis; test: Antimicrobial activity against Staphylococcus epidermidis 12228 assessed as absence bacterial growth measured after 18 to 24 hrs incubation by NCCLS method; assay type: functional; conditions: time 18-24 hrs
[44] = tested on: Escherichia coli; test: Antimicrobial activity against Escherichia coli 25922 assessed as absence bacterial growth measured after 18 to 24 hrs incubation in presence of NaCl by NCCLS method; assay type: functional; conditions: time 18-24 hrs
[45] = tested on: Escherichia coli; test: Antimicrobial activity against Escherichia coli 25922 assessed as absence bacterial growth measured after 18 to 24 hrs incubation in presence of 50% serum by NCCLS method; assay type: functional; conditions: time 18-24 hrs
[46] = Drug distribution in Escherichia coli 25922 assessed as red fluorescence signal at 1 time MIC concentration incubated for 30 mins in absence of light by Propidium iodide staining based assay; assay type: ADME; conditions: 0.5 h
[47] = Drug distribution in Staphylococcus aureus 29213 assessed as red fluorescence signal at 1 time MIC concentration incubated for 30 mins in absence of light by Propidium iodide staining based assay; assay type: ADME; conditions: 0.5 h
[48] = Drug distribution in Staphylococcus aureus 29213 assessed as green fluorescence signal covered all the bacterial cell at 1 time MIC concentration incubated for 30 mins in absence of light by 3D-SIM super resolution microscopy; assay type: ADME; conditions: 0.5 h
[49] = Drug distribution in Escherichia coli 25922 assessed as green fluorescence signal covered all the bacterial cell at 1 time MIC concentration incubated for 30 mins in absence of light by 3D-SIM super resolution microscopy; assay type: ADME; conditions: 0.5 h

H-GKLWLKGAKLWLKGGKLWLKG-NH2
MIC [1]: 4 µM | hemolysis at 1 h, 128 µM [2]: < 10% | MIC [3]: > 32 µM | MIC [4]: > 32 µM | MIC [5]: 32 µM | MIC [6]: 2 µM | viability at 8 h, up to 64 µM [7]: 60% | MIC [8]: 2 µM | IC50 at 8 h [9]: > 64 µM | MIC [10]: 2 µM | IC50 at 8 h [11]: > 64 µM | MBC [12]: 1 µM | MBC [13]: 2 µM | MIC [14]: 8 µM | MIC [15]: 2 µM | MIC [16]: 8 µM | MBC [17]: 8 µM | MBC [18]: 2 µM | MIC [19]: 4 µM | MBC [20]: 8 µM | MBC [21]: 8 µM | MIC [22]: 2 µM | MBC [23]: 8 µM | MIC [24]: 1 µM | IC50 at 8 h [25]: > 64 µM | MBC [26]: 8 µM | MBC [27]: 8 µM | viability at 8 h, 64 µM [28]: < 50% | MBC [29]: 16 µM | MIC [30]: 4 µM | MIC [31]: 2 µM | MBC [32]: 2 µM | MBC [33]: > 32 µM | MIC [34]: 8 µM | MBC [35]: 4 µM | MIC [36]: 16 µM | MBC [37]: 8 µM | viability at 8 h, 64 µM [38]: < 50% | MIC [39]: 1 µM | HC10 [40]: > 128 µM | MIC [41]: 2 µM | MIC [42]: 4 µM | MIC [43]: 8 µM | MIC [44]: 16 µM | MIC [45]: > 32 µM

CC(C)C[C@H](NC(=O)[C@H](CCCCN)NC(=O)CNC(=O)CNC(=O)[C@H](CCCCN)NC(=O)[C@H](CC(C)C)NC(=O)[C@H](Cc1c[nH]c2ccccc12)NC(=O)[C@H](CC(C)C)NC(=O)[C@H](CCCCN)NC(=O)CNC(=O)[C@H](C)NC(=O)[C@H](CCCCN)NC(=O)[C@H](CC(C)C)NC(=O)[C@H](Cc1c[nH]c2ccccc12)NC(=O)[C@H](CC(C)C)NC(=O)[C@H](CCCCN)NC(=O)CNC(=S)Nc1ccc2c(c1)C(=O)OC21c2ccc(O)cc2Oc2cc(O)ccc21)C(=O)N[C@@H](Cc1c[nH]c2ccccc12)C(=O)N[C@@H](CC(C)C)C(=O)N[C@@H](CCCCN)C(=O)NCC(N)=O ({FITC}-GKLWLKAGKLWLKGGKLWLKG-NH2)
Drug uptake [46]: Active | Drug uptake [47]: Active | Drug uptake [48]: Active | Drug uptake [49]: Active
